Test results: patent US6723512B2, “METHODS USING GENETIC PACKAGE DISPLAY FOR DETECTING AND IDENTIFYING PROTEIN-PROTEIN INTERACTIONS THAT FACILITATE INTERNALIZATION AND TRANSGENE EXPRESSION AND CELLS OR TISSUES COMPETENT FOR THE SAME AND METHODS FOR EVOLVING GENE DELIVERY VECTORS” (priority 1997, dated 2004)

Assays:
COS cells [1] = assay: Enhancement of EGF-phage transduction by heat shock and/or camptothecin; assay type: cell-based
Description: The effects of heat shock and another genotoxic treatment, camptothecin were tested. Camptothecin is a type I topoisomerase inhibiter that produces DNA strand breaks. Camptothecin is found to enhance transduction efficiency up to 2 fold at 0.1 μM but was inhibitory at higher concentrations (data not shown). EGF displaying phage (MG4-EGF vector) were incubated with COS cells for 24 hours at which time the cells were either not further treated, subjected to a four hour heat shock (42.5° C.), or treated with 0.1 μM camptothecin for four hours. GFP autofluorescent cells were counted at 72 hours after addition of phage.

COS cells [2] = assay: Transduction of COS cells by peptide display phage (second generation screen); assay type: cell-based; conditions: overnight incubation, GFP cells at 72 hours, FL5 versus FN5A or FN5B, FIG. 5
Description: Oligonucleotides encoding the 3 peptides are inserted into the MEGFP vector as fusions to the pIII coat protein. The resulting phage are used to transfect COS cells. Phage are added to cells and incubated overnight at 37° C. in medium with 10% fetal calf serum. The cells are washed to remove unbound phage and returned to the incubator. Transduction is assessed by counting GFP expressing autofluorescent cells at 72 hours after the addition of phage.

Molecule | enhancement of targeted phage mediated transduction by camptothecin (COS cells [1]; EGF phage 24 hours, then 0.1 μM camptothecin four hours, GFP cells at 72 hours, FIG. 14) | effect of combined heat shock and camptothecin over either treatment alone (COS cells [1]; FIG. 14) | enhancement of transduction efficiency (COS cells [1]; camptothecin 0.1 μM, data not shown) | effect on transduction at higher concentrations (COS cells [1]; concentrations higher than 0.1 μM, data not shown) | transduction efficiency compared among peptide display phage (COS cells [2])
CC[C@@]1(O)C(=O)OCc2c1cc1n(c2=O)Cc2cc3ccccc3nc2-1 [Camptothecin] | ~2 fold | modest synergistic increase | up to 2 fold | inhibitory | 
FVPDPYRKSR [FL5] |  |  |  |  | greater transduction efficiency
